The source of these data is US12012417B2, “N-substituted tetrahydrothienopyridine derivatives and uses thereof” (NOVARTIS AG, priority 2018, dated 2024).

Assay [1] concerns Dengue 1 virus MY97-10245. In words: High-content imaging cell-based flavivirus immunodetection (HCl-CFI) assay, Dengue 1. The note with it: Dengue virus, A549, 48 h, read-out: Dengue 1 virus MY97-10245 in A549 using HCl [Inhibitor/IC50] Qualified AC50.
Assay [2] has as its system Dengue 2 virus MY97-10340. Description: High-content imaging cell-based flavivirus immunodetection (HCl-CFI) assay, Dengue 2. The conditions noted are these: Dengue virus, A549, 48 h. In outline:
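A549 cells infected at MOI 0.3, treated with 3-fold, 10-point compound dilutions for 48 h. After paraformaldehyde fixation, viral E protein immunostained with 4G2 antibody and nuclei counterstained; imaged by high-content imaging. EC50 = concentration reducing E protein expression by 50%, from dose-response curves.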

In assay [3] the test system is Dengue 3 virus MY05-34640-WT-C6/36. Description: High-content imaging cell-based flavivirus immunodetection (HCl-CFI) assay, Dengue 3. The conditions noted are these: Dengue virus, A549, 48 h, read-out: Dengue 3 virus MY05-34640-WT-C6/36 in A549 using HCl [Inhibitor/IC50] Qualified AC50.
Assay [4] has as its system Dengue 4 virus MY01-22713. In words: High-content imaging cell-based flavivirus immunodetection (HCl-CFI) assay, Dengue 4. The conditions noted are these: Dengue virus, A549, 48 h.
Where [5] appears, read: read-out: Dengue 2 virus MY97-10340 in A549 using HCl [Inhibitor/IC50] Qualified AC50, A549 cells, MOI 0.3, 48 h, viral E protein expression.
Where [6] appears, read: read-out: Dengue 4 virus MY01-22713 in A549 using HCl [Inhibitor/IC50] Qualified AC50, A549 cells, 48 h, viral E protein expression.

Where a name gives a salt, the structure may show the parent alone. Read-outs that look alike come from different tables or passages of the source. Where only a bound is given, the exact number is not on record here.

`COc1cc(CC(=O)Nc2sc3c(c2C#N)CN(CC2CCCCC2)CC3)ccc1S(C)(=O)=O` [Example 10, N-(3-cyano-5-(cyclohexylmethyl)-4,5,6,7-tetrahydrothieno[3,2-c]pyridin-2-yl)-2-(3-methoxy-4-(methylsulfonyl)phenyl)acetamide]: the EC50 in assay [1] is 0.1 to 1 µM; in assay [2] (setting [5]), below 0.1 µM; in assay [3] it was below 0.1 µM; in assay [4] (setting [6]), below 0.1 µM.
Consider `N#Cc1c(NC(=O)Cc2ccc3c(c2)CNS3(=O)=O)sc2c1CN(CC1CCCCC1)CC2` [Example 16, N-(3-cyano-5-(cyclohexylmethyl)-4,5,6,7-tetrahydrothieno[3,2-c]pyridin-2-yl)-2-(1,1-dioxido-2,3-dihydrobenzo[d]isothiazol-5-yl)acetamide], for which the EC50 was 0.1 to 1 µM in assay [1], below 0.1 µM in assay [2] (setting [5]), below 0.1 µM in assay [3] and below 0.1 µM in assay [4] (setting [6]).
Turning to `COc1cc(CC(=O)Nc2sc3c(c2C#N)CN(CC2CCCCC2)C(C)(C)C3)ccc1S(N)(=O)=O` [Example 82, N-(3-cyano-5-(cyclohexylmethyl)-6,6-dimethyl-4,5,6,7-tetrahydrothieno[3,2-c]pyridin-2-yl)-2-(3-methoxy-4-sulfamoylphenyl)acetamide], the EC50 in assay [1], in assay [2] (setting [5]), in assay [3] and in assay [4] (setting [6]) was below 0.1 µM in each case.
With `CC1Cc2sc(NC(=O)Cc3ccc(S(N)(=O)=O)cc3)c(C#N)c2CN1Cc1cc(Cl)ccc1Cl` (stereo not shown) [Example 64, N-(3-cyano-5-(2,5-dichlorobenzyl)-6-methyl-4,5,6,7-tetrahydrothieno[3,2-c]pyridin-2-yl)-2-(4-sulfamoylphenyl)acetamide], the EC50 in assay [1], in assay [2] (setting [5]), in assay [3] and in assay [4] (setting [6]) was below 0.1 µM each time.
With `Cn1cc(S(N)(=O)=O)cc1CC(=O)Nc1sc2c(c1C#N)CN(CC1CCCCC1)CC2` [Example 88, N-(3-cyano-5-(cyclohexylmethyl)-4,5,6,7-tetrahydrothieno[3,2-c]pyridin-2-yl)-2-(1-methyl-4-sulfamoyl-1H-pyrrol-2-yl)acetamide], the EC50 in assay [1] was 0.1 to 1 µM; in assay [2] (setting [5]), below 0.1 µM; in assay [3], below 0.1 µM; in assay [4] (setting [6]), below 0.1 µM.
Consider `CCC1(CC)Cc2sc(NC(=O)Cc3ccc(S(N)(=O)=O)cc3)c(C#N)c2CN1CC1CC(F)(F)C1` [Example 79, N-(3-cyano-5-((3,3-difluorocyclobutyl)methyl)-6,6-diethyl-4,5,6,7-tetrahydrothieno[3,2-c]pyridin-2-yl)-2-(4-sulfamoylphenyl)acetamide], for which the EC50 in assay [1], in assay [2] (setting [5]), in assay [3] and in assay [4] (setting [6]) was below 0.1 µM each time.
Consider `COc1cc(C#N)cc(CC(=O)Nc2sc3c(c2C#N)CN(Cc2cccc(F)c2)CC3)c1` [Example 38, N-(3-cyano-5-(3-fluorobenzyl)-4,5,6,7-tetrahydrothieno[3,2-c]pyridin-2-yl)-2-(3-cyano-5-methoxyphenyl)acetamide], for which the EC50 in assay [1] is above 1 µM; in assay [2] (setting [5]), 0.1 to 1 µM; in assay [3] it was 0.1 to 1 µM; in assay [4] (setting [6]), 0.1 to 1 µM.
With `CNS(=O)(=O)c1ccccc1CC(=O)Nc1sc2c(c1C#N)CN(Cc1cccc(F)c1)CC2` [Example 28, N-(3-cyano-5-(3-fluorobenzyl)-4,5,6,7-tetrahydrothieno[3,2-c]pyridin-2-yl)-2-(2-(N-methylsulfamoyl)phenyl)acetamide], the EC50 in assay [1] was 0.1 to 1 µM; in assay [2] (setting [5]) it was 0.1 to 1 µM; in assay [3], below 0.1 µM; in assay [4] (setting [6]), below 0.1 µM.
For the compound `COc1cc(CC(=O)Nc2sc3c(c2C#N)CN(Cc2cccc(F)c2)CC3)ccc1S(N)(=O)=O` [Example 22, N-(3-cyano-5-(3-fluorobenzyl)-4,5,6,7-tetrahydrothieno[3,2-c]pyridin-2-yl)-2-(3-methoxy-4-sulfamoylphenyl)acetamide], the EC50 in assay [1] was 0.1 to 1 µM; in assay [2] (setting [5]) it was below 0.1 µM; in assay [3], below 0.1 µM; in assay [4] (setting [6]), below 0.1 µM.
Take `CC1Cc2sc(NC(=O)Cc3ccc(S(N)(=O)=O)cc3)c(C#N)c2CN1CC1CCC1` (stereo not shown) [Example 60, N-(3-cyano-5-(cyclobutylmethyl)-6-methyl-4,5,6,7-tetrahydrothieno[3,2-c]pyridin-2-yl)-2-(4-sulfamoylphenyl)acetamide]: the EC50 in assay [1] was above 1 µM; in assay [2] (setting [5]), 0.1 to 1 µM; in assay [3] it was 0.1 to 1 µM; in assay [4] (setting [6]), 0.1 to 1 µM.
On to `COc1cc(CC(=O)Nc2sc3c(c2C#N)CN(CC2CC(F)(F)C2)CC3)ccc1S(C)(=O)=O` [Example 51, N-(3-cyano-5-((3,3-difluorocyclobutyl)methyl)-4,5,6,7-tetrahydrothieno[3,2-c]pyridin-2-yl)-2-(3-methoxy-4-(methylsulfonyl)phenyl)acetamide], for which the EC50 in assay [1], in assay [2] (setting [5]), in assay [3] and in assay [4] (setting [6]) was 0.1 to 1 µM each time.
As for `COP(C)(=O)c1ccc(CC(=O)Nc2sc3c(c2C#N)CN(Cc2cccc(F)c2)CC3)cc1` (stereo not shown) [Example 44, Methyl (4-(2-((3-cyano-5-(3-fluorobenzyl)-4,5,6,7-tetrahydrothieno[3,2-c]pyridin-2-yl)amino)-2-oxoethyl)phenyl)(methyl)phosphinate], the EC50 in assay [1] was above 1 µM; in assay [2] (read-out: Dengue 2 virus MY97-10340 in A549 using HCl [Inhibitor/IC50] Qualified AC50), 0.1 to 1 µM; in assay [3], 0.1 to 1 µM; in assay [4] (read-out: Dengue 4 virus MY01-22713 in A549 using HCl [Inhibitor/IC50] Qualified AC50), 0.1 to 1 µM.
Take `COC(=O)c1cccc(CN2CCc3c(sc(NC(=O)Cc4ccc(S(N)(=O)=O)cc4)c3C#N)C2)c1` [Example 108, Methyl 3-((3-cyano-2-(2-(4-sulfamoylphenyl)acetamido)-4,7-dihydrothieno[2,3-c]pyridin-6(5H)-yl)methyl)benzoate]: the EC50 in assay [1] was 0.1 to 1 µM; in assay [2] (setting [5]), below 0.1 µM; in assay [3], below 0.1 µM; in assay [4] (setting [6]) it was below 0.1 µM.
Regarding `N#Cc1c(NC(=O)Cc2ccc3c(c2)CNS3(=O)=O)sc2c1CN(CC1CC(F)(F)C1)CC2` [Example 52, N-(3-cyano-5-((3,3-difluorocyclobutyl)methyl)-4,5,6,7-tetrahydrothieno[3,2-c]pyridin-2-yl)-2-(1,1-dioxido-2,3-dihydrobenzo[d]isothiazol-5-yl)acetamide], the EC50 is above 1 µM in assay [1], 0.1 to 1 µM in assay [2] (setting [5]), 0.1 to 1 µM in assay [3] and 0.1 to 1 µM in assay [4] (setting [6]).
`Cc1ccc(CN2CCc3c(sc(NC(=O)Cc4ccc(S(N)(=O)=O)cc4)c3C#N)C2)cc1` [Example 98, N-(3-cyano-6-(4-methylbenzyl)-4,5,6,7-tetrahydrothieno[2,3-c]pyridin-2-yl)-2-(4-sulfamoylphenyl)acetamide]: the EC50 in assay [1] is above 1 µM; in assay [2] (setting [5]), 0.1 to 1 µM; in assay [3] it was 0.1 to 1 µM; in assay [4] (setting [6]) it was 0.1 to 1 µM.
As for `N#Cc1c(NC(=O)Cc2ccc(S(N)(=O)=O)cc2)sc2c1CN(CC13CC(F)(C1)C3)CC2` [Example 1, N-(3-cyano-5-((3-fluorobicyclo[1.1.1]pentan-1-yl)methyl)-4,5,6,7-tetrahydrothieno[3,2-c]pyridin-2-yl)-2-(4-sulfamoylphenyl)acetamide], the EC50 was above 1 µM in assay [1], 0.1 to 1 µM in assay [2] (setting [5]), 0.1 to 1 µM in assay [3] and 0.1 to 1 µM in assay [4] (setting [6]).
Turning to `COc1cc(S(N)(=O)=O)ccc1CC(=O)Nc1sc2c(c1C#N)CN(Cc1cccc(F)c1)CC2` [Example 24, N-(3-cyano-5-(3-fluorobenzyl)-4,5,6,7-tetrahydrothieno[3,2-c]pyridin-2-yl)-2-(2-methoxy-4-sulfamoylphenyl)acetamide], the EC50 was 0.1 to 1 µM in assay [1], 0.1 to 1 µM in assay [2] (setting [5]), below 0.1 µM in assay [3] and 0.1 to 1 µM in assay [4] (setting [6]).
Turning to `N#Cc1c(NC(=O)Cc2ccc(S(N)(=O)=O)cc2)sc2c1CCN(Cc1c(F)cccc1Cl)C2` [Example 111, N-(6-(2-chloro-6-fluorobenzyl)-3-cyano-4,5,6,7-tetrahydrothieno[2,3-c]pyridin-2-yl)-2-(4-sulfamoylphenyl)acetamide], the EC50 in assay [1] is 0.1 to 1 µM; in assay [2] (setting [5]) it was below 0.1 µM; in assay [3] it was below 0.1 µM; in assay [4] (setting [6]) it was below 0.1 µM.
Turning to `CC(c1ccccc1)N1CCc2c(sc(NC(=O)Cc3ccc(S(N)(=O)=O)cc3)c2C#N)C1` (stereo not shown) [Example 90, N-(3-cyano-6-(1-phenylethyl)-4,5,6,7-tetrahydrothieno[2,3-c]pyridin-2-yl)-2-(4-sulfamoylphenyl)-acetamide hydrochloride], the EC50 was above 1 µM in assay [1], 0.1 to 1 µM in assay [2] (setting [5]), 0.1 to 1 µM in assay [3] and 0.1 to 1 µM in assay [4] (setting [6]).
